Test results published in ChEMBL document CHEMBL4715896, “A styrylpyrone dimer isolated from Aniba heringeri causes apoptosis in MDA-MB-231 triple-negative breast cancer cells” (Bioorg Med Chem, 2021).
One block for each compound: values may come before it. Activity calls are given as the source filed them. The rule behind the calls is not given here.

How the values were obtained:
[1] = tested on: PC-3; assay: Growth inhibition of human PC3 cells incubated for 48 hrs by sulforhodamine B assay; format: functional
[2] = tested on: 786-0; assay: Growth inhibition of human 786-0 cells incubated for 48 hrs by sulforhodamine B assay; format: functional
[3] = tested on: HT-29; assay: Growth inhibition of human HT-29 cells incubated for 48 hrs by sulforhodamine B assay; format: functional
[4] = tested on: MCF7; assay: Growth inhibition of human MCF7 cells incubated for 48 hrs by sulforhodamine B assay; format: functional
[5] = tested on: MDA-MB-231; assay: Growth inhibition of human MDA-MB-231 cells incubated for 48 hrs by sulforhodamine B assay; format: functional
[6] = Cytotoxicity against mouse NIH/3T3 cells assessed as growth inhibition after 48 hrs by SRB assay; format: cell-based, NIH3T3
[7] = Selectivity index, ratio of GI50 for cytotoxicity against mouse NIH/3T3 cells to GI50 for human PC3 cells; format: toxicity, cell-based; conditions: NIH/3T3 cells and PC3 cells, read-out: RatioGI50
[8] = Selectivity index, ratio of GI50 for cytotoxicity against mouse NIH/3T3 cells to GI50 for human 786-0 cells
[9] = Selectivity index, ratio of GI50 for cytotoxicity against mouse NIH/3T3 cells to GI50 for human HT-29 cells; format: toxicity, cell-based; conditions: NIH/3T3 cells and HT-29 cells, read-out: RatioGI50
[10] = Selectivity index, ratio of GI50 for cytotoxicity against mouse NIH/3T3 cells to GI50 for human MCF7 cells; format: toxicity, cell-based; conditions: NIH/3T3 cells and MCF7 cells, read-out: RatioGI50
[11] = Selectivity index, ratio of GI50 for cytotoxicity against mouse NIH/3T3 cells to GI50 for human MDA-MB-231 cells; format: toxicity, cell-based; conditions: NIH/3T3 cells and MDA-MB-231 cells, read-out: RatioGI50
[12] = tested on: MDA-MB-231; assay: Induction of apoptosis in human MDA-MB-231 cells assessed as viable cells at 63 uM after 48 hrs by Annexin-V/7-AAD staining based flow cytometry relative to control; format: functional; conditions: read-out: Activity
[13] = tested on: MDA-MB-231; assay: Induction of apoptosis in human MDA-MB-231 cells assessed as apoptotic cells at 63 uM after 48 hrs by Annexin-V/7-AAD staining based flow cytometry relative to control; format: functional
[14] = tested on: MDA-MB-231; assay: Induction of apoptosis in human MDA-MB-231 cells assessed as late apoptotic cells at 63 uM after 48 hrs by Annexin-V/7-AAD staining based flow cytometry relative to control; format: functional
[15] = tested on: MDA-MB-231; assay: Induction of apoptosis in human MDA-MB-231 cells assessed as necrotic cells at 63 uM after 48 hrs by Annexin-V/7-AAD staining based flow cytometry relative to control; format: functional
[16] = tested on: MDA-MB-231; assay: Induction of apoptosis in human MDA-MB-231 cells assessed as viable cells at 63 uM after 72 hrs by Annexin-V/7-AAD staining based flow cytometry relative to control; format: functional; conditions: read-out: Activity
[17] = tested on: MDA-MB-231; assay: Induction of apoptosis in human MDA-MB-231 cells assessed as apoptotic cells at 63 uM after 72 hrs by Annexin-V/7-AAD staining based flow cytometry relative to control; format: functional
[18] = tested on: MDA-MB-231; assay: Induction of apoptosis in human MDA-MB-231 cells assessed as late apoptotic cells at 63 uM after 72 hrs by Annexin-V/7-AAD staining based flow cytometry relative to control; format: functional
[19] = tested on: MDA-MB-231; assay: Induction of apoptosis in human MDA-MB-231 cells assessed as necrotic cells at 63 uM after 72 hrs by Annexin-V/7-AAD staining based flow cytometry relative to control; format: functional
[20] = tested on: MDA-MB-231; assay: Induction of apoptosis in human MDA-MB-231 cells assessed as formation of apoptotic bodies after 48 hrs by Hoechst 33342 staining based analysis relative to control; format: functional
[21] = tested on: MDA-MB-231; assay: Induction of apoptosis in human MDA-MB-231 cells assessed as formation of apoptotic bodies after 72 hrs by Hoechst 33342 staining based analysis relative to control; format: functional
[22] = tested on: MDA-MB-231; assay: Induction of morphological changes in human MDA-MB-231 cells assessed as proliferation arrest at 4.4 uM after 48 hrs by acridine orange/ethidium bromide double staining-based fluorescence/phase contrast microscopic analysis; format: functional, cell-based
[23] = tested on: MDA-MB-231; assay: Induction of morphological changes in human MDA-MB-231 cells assessed as loss of elongated spindle morphology at 4.4 uM after 48 hrs by acridine orange/ethidium bromide double staining-based fluorescence/phase contrast microscopic analysis; format: functional, cell-based
[24] = tested on: MDA-MB-231; assay: Induction of morphological changes in human MDA-MB-231 cells assessed as reduction in cell contact at 4.4 uM after 48 hrs by acridine orange/ethidium bromide double staining-based fluorescence/phase contrast microscopic analysis; format: functional
[25] = tested on: MDA-MB-231; assay: Induction of morphological changes in human MDA-MB-231 cells assessed as reduction in cytoplasmic extension at 4.4 uM after 48 hrs by acridine orange/ethidium bromide double staining-based fluorescence/phase contrast microscopic analysis; format: functional, cell-based
[26] = tested on: MDA-MB-231; assay: Induction of morphological changes in human MDA-MB-231 cells assessed as formation of coarse clusters at 4.4 uM after 72 hrs by acridine orange/ethidium bromide double staining-based fluorescence/phase contrast microscopic analysis; format: functional, cell-based
[27] = tested on: MDA-MB-231; assay: Induction of morphological changes in human MDA-MB-231 cells assessed as formation of atypical cell clusters at 4.4 uM after 72 hrs by acridine orange/ethidium bromide double staining-based fluorescence/phase contrast microscopic analysis; format: functional
[28] = tested on: MDA-MB-231; assay: Induction of morphological changes in human MDA-MB-231 cells assessed as reduction in number of cells at 63 uM after 48 hrs by acridine orange/ethidium bromide double staining-based fluorescence/phase contrast microscopic analysis; format: functional, cell-based
[29] = tested on: MDA-MB-231; assay: Induction of morphological changes in human MDA-MB-231 cells assessed as reduction in number of cells at 63 uM after 72 hrs by acridine orange/ethidium bromide double staining-based fluorescence/phase contrast microscopic analysis; format: functional, cell-based
[30] = tested on: MDA-MB-231; assay: Induction of morphological changes in human MDA-MB-231 cells assessed as cells with irregular shape at 63 uM after 72 hrs by acridine orange/ethidium bromide double staining-based fluorescence/phase contrast microscopic analysis; format: functional, cell-based
[31] = tested on: MDA-MB-231; assay: Induction of morphological changes in human MDA-MB-231 cells assessed as loss of cell cell interaction at 63 uM after 72 hrs by acridine orange/ethidium bromide double staining-based fluorescence/phase contrast microscopic analysis; format: functional
[32] = tested on: MDA-MB-231; assay: Induction of morphological changes in human MDA-MB-231 cells assessed as loss of cell adhesion at 63 uM after 72 hrs by acridine orange/ethidium bromide double staining-based fluorescence/phase contrast microscopic analysis; format: functional
[33] = tested on: MDA-MB-231; assay: Induction of apoptosis in human MDA-MB-231 cells assessed as chromatin condensation at 63 uM after 48 hrs by acridine orange/ethidium bromide double staining-based fluorescence/phase contrast microscopic analysis; format: functional, cell-based
[34] = tested on: MDA-MB-231; assay: Induction of apoptosis in human MDA-MB-231 cells assessed as nuclei fragmentation at 63 uM after 48 hrs by acridine orange/ethidium bromide double staining-based fluorescence/phase contrast microscopic analysis; format: functional, cell-based
[35] = tested on: MDA-MB-231; assay: Induction of apoptosis in human MDA-MB-231 cells assessed as appearance of apoptotic bodies at 63 uM after 48 hrs by acridine orange/ethidium bromide double staining-based fluorescence/phase contrast microscopic analysis; format: functional, cell-based
[36] = tested on: MDA-MB-231; assay: Induction of apoptosis in human MDA-MB-231 cells assessed as chromatin condensation at 63 uM after 72 hrs by acridine orange/ethidium bromide double staining-based fluorescence/phase contrast microscopic analysis; format: functional, cell-based
[37] = tested on: MDA-MB-231; assay: Induction of apoptosis in human MDA-MB-231 cells assessed as nuclei fragmentation at 63 uM after 72 hrs by acridine orange/ethidium bromide double staining-based fluorescence/phase contrast microscopic analysis; format: functional, cell-based
[38] = tested on: MDA-MB-231; assay: Induction of apoptosis in human MDA-MB-231 cells assessed as appearance of apoptotic bodies at 63 uM after 72 hrs by acridine orange/ethidium bromide double staining-based fluorescence/phase contrast microscopic analysis; format: functional, cell-based
[39] = tested on: MDA-MB-231; assay: Induction of apoptosis in human MDA-MB-231 cells assessed as activation of caspase-3 at 63 uM after 48 hrs by flow cytometry; format: functional, cell-based
[40] = tested on: MDA-MB-231; assay: Induction of apoptosis in human MDA-MB-231 cells assessed as activation of caspase-3 at 63 uM after 72 hrs by flow cytometry relative to untreated control; format: functional
[41] = tested on: MDA-MB-231; assay: Induction of apoptosis in human MDA-MB-231 cells assessed as increase in Bax gene expression at 63 uM after 48 hrs by RT-qPCR analysis; format: functional, cell-based
[42] = tested on: MDA-MB-231; assay: Induction of apoptosis in human MDA-MB-231 cells assessed as reduction in bcl2 gene expression at 63 uM after 48 hrs by RT-qPCR analysis; format: functional, cell-based
[43] = tested on: MDA-MB-231; assay: Induction of apoptosis in human MDA-MB-231 cells assessed as effect on BIRC5 mRNA expression at 63 uM after 48 hrs by RT-qPCR analysis; format: functional, cell-based
[44] = tested on: MDA-MB-231; assay: Induction of apoptosis in human MDA-MB-231 cells assessed as increase in Bax/Bcl2 gene expression at 63 uM after 48 hrs by RT-qPCR analysis; format: functional, cell-based

GI50 [1]: 90.4 µM | GI50 [2]: 176 µM | GI50 [3]: 145 µM | GI50 [4]: 107 µM | GI50 [5]: 98 µM
SMILES: O=c1cccc(/C=C/c2ccccc2)o1
GI50 at 48 h [6]: 1270 µM | selectivity ratio [7]: 14 | RatioGI50 [8]: 7.24 | selectivity ratio [9]: 8.73 | selectivity ratio at 48 h [10]: 11.8 | selectivity ratio at 48 h [11]: 12.9

GI50 [1]: 69.5 µM | GI50 [2]: 61.7 µM | GI50 [3]: 69.7 µM | GI50 [4]: 50.2 µM | GI50 [5]: 4.42 µM
SMILES: O=C1C=C[C@@H]2[C@H](c3ccccc3)[C@@H](c3cccc(=O)o3)[C@]2(/C=C/c2ccccc2)O1
GI50 at 48 h [6]: 158 µM | selectivity ratio [7]: 2.27 | RatioGI50 [8]: 2.55 | selectivity ratio [9]: 2.26 | selectivity ratio at 48 h [10]: 3.14 | selectivity ratio at 48 h [11]: 35.7 | viability at 63 µM [12]: 28.4% | Activity [13]: 17% | Activity [14]: 13% | Activity [15]: 2% | viability at 63 µM [16]: 50% | Activity [17]: 11% | Activity [18]: 37% | Activity [19]: 5% | Activity [20]: 56% | Activity [21]: 33% | Activity [22]: Active | Activity [23]: Active | Activity [24]: Active | Activity [25]: Active | Activity [26]: Active | Activity [27]: Active | Activity [28]: Active | Activity [29]: Active | Activity [30]: Active | Activity [31]: Active | Activity [32]: Active | Activity [33]: Active | Activity [34]: Active | Activity [35]: Active | Activity [36]: Active | Activity [37]: Active | Activity [38]: Active | Activity [39]: Active | fold change (FC) [40]: 4 | Activity [41]: Active | Activity [42]: inactive | Activity [43]: Active | Activity [44]: Active

GI50 [1]: 96.3 µM | GI50 [2]: 567 µM | GI50 [3]: 88.7 µM | GI50 [4]: 12.2 µM | GI50 [5]: 34.2 µM
SMILES: O=c1cccc([C@H]2[C@H](c3ccccc3)[C@H](c3cccc(=O)o3)[C@H]2c2ccccc2)o1
GI50 at 48 h [6]: 503 µM | selectivity ratio [7]: 5.22 | RatioGI50 [8]: 0.88 | selectivity ratio [9]: 5.67 | selectivity ratio at 48 h [10]: 41.1 | selectivity ratio at 48 h [11]: 14.7

GI50 [1]: 0.24 µM | GI50 [2]: 0.16 µM | GI50 [3]: 0.28 µM | GI50 [4]: 0.25 µM | GI50 [5]: 1.84 µM
SMILES: COc1cccc2c1C(=O)c1c(O)c3c(c(O)c1C2=O)C[C@@](O)(C(=O)CO)C[C@@H]3O[C@H]1C[C@H](N)[C@H](O)[C@H](C)O1 [DOXORUBICIN]
GI50 at 48 h [6]: 0.28 µM
